ChEMBL document CHEMBL6078711, “Design, synthesis, and biological evaluation of steroidal indole derivatives as membrane-targeting antibacterial candidates” (Eur J Med Chem, 2025)
Converted amounts (≈) assume the structure as drawn. The source made the active and inactive calls. The calls are words filed in the database; no cut-off is given here.

Legend:
[1] = system: Staphylococcus aureus; assay: Antibacterial activity against Staphylococcus aureus CGMCC1.8721 assessed as reduction in bacterial growth; type: functional
[2] = system: Staphylococcus aureus; assay: Antibacterial activity against methicillin-resistant Staphylococcus aureus ATCC 43300 assessed as reduction in bacterial growth; type: functional
[3] = system: Staphylococcus aureus; assay: Antibacterial activity against methicillin-resistant Staphylococcus aureus CGMCC 1.12409 assessed as reduction in bacterial growth; type: functional
[4] = system: Staphylococcus aureus; assay: Antibacterial activity against methicillin-resistant Staphylococcus aureus ATCC 33591 assessed as reduction in bacterial growth; type: functional
[5] = system: A549; assay: Cytotoxicity against human A549 cells upto 20 uM; type: functional, cell-based
[6] = system: HepG2; assay: Cytotoxicity against human HepG2 cells upto 20 uM; type: functional, cell-based
[7] = system: A549; assay: Cytotoxicity against human A549 cells assessed as cell viability upto 40 uM relative to control; type: functional; conditions: up to 40 µM
[8] = Cytotoxicity against human HEK293T cells assessed as cell viability upto 40 uM relative to control; type: toxicity, cell-based, HEK-293T; conditions: read-out: Activity
[9] = Hemolytic activity against rabbit Red blood cell assessed as hemolysis; type: toxicity, cell-based, Oryctolagus cuniculus, Erythrocyte; conditions: red blood cells
[10] = system: Staphylococcus aureus; assay: Drug resistance, ratio of MIC for Staphylococcus aureus CGMCC1.8721 after 30 days exposure to MIC for Staphylococcus aureus CGMCC1.8721 during first exposure; type: functional
[11] = system: Staphylococcus aureus; assay: Antibacterial activity against Staphylococcus aureus CGMCC1.8721 assessed as reduction in bacterial growth in presence of K+; type: functional
[12] = system: Staphylococcus aureus; assay: Antibacterial activity against Staphylococcus aureus CGMCC1.8721 assessed as reduction in bacterial growth in presence of Mg2+; type: functional
[13] = system: Staphylococcus aureus; assay: Antibacterial activity against Staphylococcus aureus CGMCC1.8721 assessed as reduction in bacterial growth in presence of Zn2+; type: functional
[14] = system: Staphylococcus aureus; assay: Antibacterial activity against Staphylococcus aureus CGMCC1.8721 assessed as reduction in bacterial growth in presence of Fe3+; type: functional
[15] = system: Staphylococcus aureus; assay: Antibacterial activity against methicillin-resistant Staphylococcus aureus ATCC 43300 assessed as reduction in bacterial growth in presence of Na+; type: functional
[16] = system: Staphylococcus aureus; assay: Antibacterial activity against methicillin-resistant Staphylococcus aureus ATCC 43300 assessed as reduction in bacterial growth in presence of K+; type: functional
[17] = system: Staphylococcus aureus; assay: Antibacterial activity against methicillin-resistant Staphylococcus aureus ATCC 43300 assessed as reduction in bacterial growth in presence of Ca2+; type: functional
[18] = system: Staphylococcus aureus; assay: Antibacterial activity against methicillin-resistant Staphylococcus aureus ATCC 43300 assessed as reduction in bacterial growth in presence of Mg2+; type: functional
[19] = system: Staphylococcus aureus; assay: Antibacterial activity against methicillin-resistant Staphylococcus aureus ATCC 43300 assessed as reduction in bacterial growth in presence of Zn2+; type: functional
[20] = system: Staphylococcus aureus; assay: Antibacterial activity against methicillin-resistant Staphylococcus aureus CGMCC 1.12409 assessed as reduction in bacterial growth in presence of Na+; type: functional
[21] = system: Staphylococcus aureus; assay: Antibacterial activity against methicillin-resistant Staphylococcus aureus CGMCC 1.12409 assessed as reduction in bacterial growth in presence of Fe2+; type: functional
[22] = system: Staphylococcus aureus; assay: Antibacterial activity against methicillin-resistant Staphylococcus aureus CGMCC 1.12409 assessed as reduction in bacterial growth in presence of Fe3+; type: functional
[23] = system: Staphylococcus aureus; assay: Antibacterial activity against methicillin-resistant Staphylococcus aureus ATCC 33591 assessed as reduction in bacterial growth in presence of Na+; type: functional
[24] = system: Staphylococcus aureus; assay: Antibacterial activity against methicillin-resistant Staphylococcus aureus ATCC 33591 assessed as reduction in bacterial growth in presence of K+; type: functional
[25] = system: Staphylococcus aureus; assay: Antibacterial activity against methicillin-resistant Staphylococcus aureus ATCC 33591 assessed as reduction in bacterial growth in presence of Ca2+; type: functional
[26] = system: Staphylococcus aureus; assay: Antibacterial activity against methicillin-resistant Staphylococcus aureus ATCC 33591 assessed as reduction in bacterial growth in presence of Mg2+; type: functional
[27] = system: Staphylococcus aureus; assay: Antibacterial activity against methicillin-resistant Staphylococcus aureus ATCC 33591 assessed as reduction in bacterial growth in presence of Zn2+; type: functional
[28] = system: Staphylococcus aureus; assay: Antibacterial activity against methicillin-resistant Staphylococcus aureus ATCC 33591 assessed as reduction in bacterial growth in presence of Fe2+; type: functional
[29] = system: Staphylococcus aureus; assay: Antibacterial activity against methicillin-resistant Staphylococcus aureus ATCC 33591 assessed as reduction in bacterial growth in presence of Fe3+; type: functional
[30] = system: Staphylococcus aureus; assay: Antibiofilm activity against Staphylococcus aureus CGMCC1.8721 assessed as inhibition of biofilm formation at 1 times MIC; type: functional
[31] = system: Staphylococcus aureus; assay: Antibiofilm activity against Staphylococcus aureus CGMCC1.8721 assessed as inhibition of biofilm formation at 8 times MIC; type: functional
[32] = system: Cell membrane; assay: Induction of inner membrane permeabilization in Staphylococcus aureus CGMCC1.8721 assessed as increase in fluorescence intensity by PI staining based fluorescence analysis; type: subcellular
[33] = system: Cell membrane; assay: Induction of membrane depolarization in Staphylococcus aureus CGMCC1.8721 assessed as increase in fluorescence intensity measured upto 30 mins by DiSC35 dye-based fluorescence assay; type: subcellular; conditions: dose 2-8 µg/ml
[34] = system: Cell membrane; assay: Disruption of cell membrane integrity in Staphylococcus aureus CGMCC1.8721 assessed as increase in protein leakage at 4 times MIC; type: subcellular
[35] = system: Staphylococcus aureus; assay: Antibacterial activity against Staphylococcus aureus CGMCC1.8721 assessed as reduction in metabolic activity at 4 times MIC by Alamar Blue assay; type: functional; design: scale not given: the % may be the effect or the level left
[36] = system: Staphylococcus aureus; assay: Antibacterial activity against Staphylococcus aureus CGMCC1.8721 assessed as reduction in bacterial growth in presence of phosphatidylglycerol; type: functional
[37] = system: Staphylococcus aureus; assay: Antibacterial activity against Staphylococcus aureus CGMCC1.8721 assessed as reduction in bacterial growth in presence of phosphatidylethanolamine; type: functional, organism-based
[38] = system: Staphylococcus aureus; assay: Antibacterial activity against Staphylococcus aureus CGMCC1.8721 assessed as reduction in bacterial growth in presence of phosphatidylcholine; type: functional, organism-based
[39] = system: Staphylococcus aureus; assay: Antibacterial activity against Staphylococcus aureus CGMCC1.8721 assessed as reduction in bacterial growth in presence of lipoteichoic acid; type: functional, organism-based
[40] = system: Cell membrane; assay: Disruption of cell membrane integrity in Staphylococcus aureus CGMCC1.8721 assessed as increase in red fluorescence at 4 times MIC by SYTO 9/PI staining based confocal microscopic analysis; type: subcellular
[41] = system: Cell membrane; assay: Disruption of cell membrane integrity in Staphylococcus aureus CGMCC1.8721 assessed as appearance of wrinkled cell surface at 1 to 4 times MIC by scanning electron microscopic analysis; type: subcellular
[42] = system: Cell membrane; assay: Disruption of cell membrane integrity in Staphylococcus aureus CGMCC1.8721 assessed as appearance of uneven cell surface at 1 to 4 times MIC by scanning electron microscopic analysis; type: subcellular
[43] = system: Cell membrane; assay: Disruption of cell membrane integrity in Staphylococcus aureus CGMCC1.8721 assessed as appearance of ruptured cell surface at 1 to 4 times MIC by scanning electron microscopic analysis; type: subcellular
[44] = system: Staphylococcus aureus; assay: Antibacterial activity against Methicillin-resistant Staphylococcus aureus CGMCC1.8721 infected in mouse skin infection model assessed as reduction in bacterial clones at 5 to 10 mg/kg, sc; type: functional, organism-based; conditions: dose 5-10 mg/kg
[45] = system: Staphylococcus aureus; assay: Antibacterial activity against Methicillin-resistant Staphylococcus aureus CGMCC1.8721 infected in mouse skin infection model assessed as reduction in bacterial load at 10 mg/kg, sc; type: functional; design: scale not given: the % may be the effect or the level left

For CCNCc1ccc2[nH]cc(C[C@@H](C)[C@H]3CC[C@H]4[C@@H]5CC[C@@H]6C[C@H](O)CC[C@]6(C)[C@H]5CC[C@]34C)c2c1, which MIC [1] is on record?
The MIC was 1 µg/mL (≈ 2.04 µM).

What about the MIC [2] of the same compound?
Its MIC is 1 µg/mL (≈ 2.04 µM).

What about the MIC [3] of the same compound?
Its MIC is 2 µg/mL (≈ 4.08 µM).

And the MIC [4]?
Its MIC is 2 µg/mL (≈ 4.08 µM).

What about the Activity [5] of the same compound?
The Activity was “Active”.

And the Activity [6]?
The Activity was “Active”.

And the Activity [7]?
Its Activity is greater than 70%.

And the viability at up to 40 µM [8]?
The viability at up to 40 µM was greater than 70%.

And the HC50 [9]?
Its HC50 is greater than 128 µg/mL.

And the Ratio [10]?
The Ratio was 64.

What about the MIC [11] of the same compound?
The MIC was 1 µg/mL.

And the MIC [12]?
Its MIC is 1 µg/mL.

What about the MIC [13] of the same compound?
Its MIC is 1 µg/mL.

What about the MIC [14] of the same compound?
Its MIC is 1 µg/mL.

What about the MIC [15] of the same compound?
Its MIC is 1 µg/mL.

What about the MIC [16] of the same compound?
Its MIC is 1 µg/mL.

What about the MIC [17] of the same compound?
Its MIC is 1 µg/mL.

And the MIC [18]?
The MIC was 1 µg/mL.

What about the MIC [19] of the same compound?
Its MIC is 1 µg/mL.

And the MIC [20]?
Its MIC is 2 µg/mL.

And the MIC [21]?
The MIC was 2 µg/mL.

What about the MIC [22] of the same compound?
Its MIC is 2 µg/mL.

What about the MIC [23] of the same compound?
Its MIC is 2 µg/mL.

What about the MIC [24] of the same compound?
The MIC was 2 µg/mL.

What about the MIC [25] of the same compound?
The MIC was 2 µg/mL.

What about the MIC [26] of the same compound?
Its MIC is 2 µg/mL.

And the MIC [27]?
The MIC was 2 µg/mL.

What about the MIC [28] of the same compound?
Its MIC is 2 µg/mL.

What about the MIC [29] of the same compound?
Its MIC is 2 µg/mL.

And the “inhibition (INH)” value [30]?
Its value is 64.1%.

What about the “inhibition (INH)” value [31] of the same compound?
Its value is 92.4%.

And the Activity [32]?
The Activity was “Dose-dependent-effect”.

What about the Activity [33] of the same compound?
Its Activity is “Dose-dependent-effect”.

And the Activity [34]?
Its Activity is “Active”.

And the Activity [35]?
The Activity was 75%.

What about the MIC [36] of the same compound?
The MIC was 32 µg/mL.

And the Activity [37]?
The Activity was “inactive”.

And the Activity [38]?
Its Activity is “inactive”.

And the Activity [39]?
The Activity was “inactive”.

What about the Activity [40] of the same compound?
The Activity was “Active”.

And the Activity [41]?
Its Activity is “Active”.

And the Activity [42]?
Its Activity is “Active”.

And the Activity [43]?
The Activity was “Active”.

And the AC30 [44]?
The AC30 was “Active”.

And the Activity [45]?
Its Activity is 76%.
